Legend:
SUP-B15 = test: Antiproliferative activity against human SUP-B15 cells after 72 hrs by CelTiter-Glo assay; type: functional, cell-based; conditions: SUP-B15, 72 h
KOPN-8 = test: Antiproliferative activity against human KOPN8 cells after 72 hrs by CelTiter-Glo assay; type: functional, cell-based; conditions: KOPN-8, 72 h
BJ = test: Antiproliferative activity against human BJ cells after 72 hrs by CelTiter-Glo assay; type: cell-based
HepG2 = test: Antiproliferative activity against human HepG2 cells after 72 hrs by CelTiter-Glo assay; type: functional, cell-based; conditions: HepG2, 72 h

| SMILES | EC50 (HepG2) [µM] | EC50 (SUP-B15) [µM] | EC50 (KOPN-8) [µM] | EC50 (BJ) [µM] |
| --- | --- | --- | --- | --- |
| COc1ccc(-c2cc(=O)c3c(OC)cc(OC)cc3n2S(=O)(=O)c2ccc(OC)cc2)cc1 | > 82.8 | > 82.8 | > 82.8 | > 82.8 |
| COc1ccc(-c2cc(=O)c3c(OC)cc(OC)cc3n2S(=O)(=O)c2ccc(Br)cc2)cc1 | 16.3 | 63.8 | > 86.2 | > 86.2 |
| COc1ccc(-c2cc(=O)c3c(OC)cc(OC)cc3n2S(=O)(=O)c2cccc(Br)c2)cc1 | > 58.6 | > 58.6 | > 58.6 | > 58.6 |
| O=c1cc(-c2ccccc2)oc2cc(O)c(O)c(O)c12 [BAICALEIN] | 60 | 103 | 16 | > 86.2 |
| COc1ccc(-c2cc(=O)c3c(OC)cc(OC)cc3n2S(=O)(=O)c2ccc(C)cc2)cc1 | > 44.8 | > 44.8 | > 44.8 | > 44.8 |
| COc1ccc(-c2cc(=O)c3c(OC)cc(OC)cc3n2S(=O)(=O)c2ccc(C=O)cc2)cc1 | > 34.5 | > 34.5 | > 34.5 | > 34.5 |
| COc1ccc(-c2c(Cl)c(=O)c3c(OC)cc(OC)cc3n2S(=O)(=O)c2ccc(OC)cc2)cc1 | – | 17.9 | 19.1 | 90 |
| COc1ccc(-c2cc(=O)c3c(OC)cc(OC)cc3n2S(=O)(=O)c2cc(F)c(F)c(F)c2)cc1 | > 65.5 | > 65.5 | > 65.5 | > 65.5 |
| COc1ccc(-c2cc(=O)c3c(OC)cc(OC)cc3n2S(=O)(=O)Cc2ccccc2)cc1 | > 34.5 | > 34.5 | > 34.5 | > 34.5 |
| COc1ccc(-c2cc(=O)c3c(OC)cc(OC)cc3n2S(=O)(=O)c2ccc([N+](=O)[O-])cc2)cc1 | > 29.3 | 17.1 | 17.3 | > 29.3 |
| COc1ccc(-c2cc(=O)c3c(OC)cc(OC)cc3n2S(=O)(=O)c2cccc([N+](=O)[O-])c2)cc1 | > 39.7 | > 39.7 | > 39.7 | > 39.7 |
| COc1ccc(-c2cc(=O)c3c(OC)cc(OC)cc3n2S(=O)(=O)c2cc(Cl)cc(Cl)c2O)cc1 | > 37.9 | > 37.9 | > 37.9 | > 37.9 |
| COc1ccc(-c2cc(=O)c3c(OC)cc(OC)cc3n2S(=O)(=O)c2ccc(C)c([N+](=O)[O-])c2)cc1 | > 51.7 | > 51.7 | > 51.7 | > 51.7 |
| COc1ccc(-c2cc(=O)c3c(OC)cc(OC)cc3n2S(=O)(=O)c2c(C(C)C)cc(C(C)C)cc2C(C)C)cc1 | > 341 | 43.3 | > 341 | > 341 |

The next lines start with results.

| EC50 (HepG2) [µM] | SMILES | EC50 (SUP-B15) [µM] | EC50 (KOPN-8) [µM] | EC50 (BJ) [µM] |
| --- | --- | --- | --- | --- |
| > 48.3 | COc1ccc(-c2cc(=O)c3c(OC)cc(OC)cc3n2S(=O)(=O)c2ccc(Br)s2)cc1 | > 48.3 | > 48.3 | > 48.3 |
| > 65.5 | COc1ccc(-c2cc(=O)c3c(OC)cc(OC)cc3n2S(=O)(=O)c2ccc(F)cc2)cc1 | > 65.5 | > 65.5 | > 65.5 |
| > 39.7 | COc1cc(OC)c2c(=O)cc(C(=O)Nc3ccccc3S(C)(=O)=O)[nH]c2c1 | > 39.7 | > 39.7 | > 39.7 |
| > 70.7 | COc1cc(OC)c2c(=O)cc(C(=O)Nc3ccc(S(=O)(=O)c4ccccc4)cc3)[nH]c2c1 | > 70.7 | > 70.7 | > 70.7 |
| > 34.5 | COc1ccc(-c2cc(=O)c3c(OC)cc(OC)cc3n2S(=O)(=O)c2ccc(Cl)cc2)cc1 | > 34.5 | > 34.5 | > 34.5 |
| > 43.1 | COc1cc(OC)c2c(=O)cc(C(=O)Nc3ccc(C4CCCCC4)cc3)[nH]c2c1 | > 43.1 | 18.4 | 36.2 |
| > 36.8 | COc1cc(OC)c2c(=O)cc(C(=O)Nc3ccc(N4CCOCC4)cc3)[nH]c2c1 | > 36.8 | > 36.8 | > 36.8 |

Source: ChEMBL document CHEMBL4196009, “Novel vitexin-inspired scaffold against leukemia” (Eur J Med Chem, 2018)
